Experimental findings from patent US12622934B2, “Pharmaceutical composition for preventing or treating atopic disease containing Faecalibacterium prausnitzii strain” (ENTEROBIOME INC., priority 2020, dated 2026) are described below.

Values after ≈ are worked out from the molar mass of the structure shown.

Test [1] relates to Faecalibacterium prausnitzii A2-165. Kind of test: MIC by CLSI broth microdilution, type strain. In kind it is cell-based. Also on record: MIC: unit not given beside the values. Conditions: for MIC breakpoint class: test strain A2-165, breakpoints per antibiotic in c1-c3. In general terms: Dilution methods test growth across graded concentrations, often in twofold steps.
The test system of test [2] is Faecalibacterium prausnitzii EB-FPDK11. Kind of test: MIC by CLSI broth microdilution, isolated strain. In kind it is cell-based. Set-up: MIC: unit not given beside the values. Conditions: for resistance or sensitivity of the EB-FPDK11 strain to the antibiotic: Table 5; for MIC breakpoint class: test strain EB-FPDK11, breakpoints per antibiotic in c1-c3.
Test [3] deals with Bacteroides thetiotaomicron ATCC 29741. Kind of test: MIC by CLSI broth microdilution, QC strain. In kind it is cell-based. The following applies: ATCC29741.
A further test relates to IL-6. Kind of test: Serum cytokine concentration (ELISA), IL-6. In kind it is in vivo, mice. Conditions: mouse blood, compared to atopic dermatitis-induced group (DNCB). The procedure: (§1) The Faecalibacterium prausnitzii A2-165 strain and Faecalibacterium prausnitzii EB-FPDK11 live bacteria used in this experiment were prepared at a concentration of 1×10^8 CFU/150 μl PBS (25% glycerol, 0.05% cysteine/PBS).
(§2) To observe atopic dermatitis lesions, 6-week-old NC/Nga mice (weighed about 21 to 25 g, SLC, Inc., Japan) were purchased from Daehan Biolink Co., Ltd. (Chungbuk, Korea). Animal tests were carried out in accordance with the Animal use and Care Protocol of the Institutional Animal Care and Use Committee (IACUC). The animals were acclimated for one week, and then raised for 9 weeks at a constant temperature of 22° C. and a relative humidity of 50 to 60% with a 12-hr light/12-hr dark cycle.
(§3) The backs of 6-week-old NC/Nga mice were shaved clean, and then left to stand for 24 hours so that fine wounds of the skin were healed. […]
After induction of atopic dermatitis, the concentrations of cytokines related to Th1 and Th2 were measured to examine the immune response resulting from administration of the Faecalibacterium prausnitzii EB-FPDK11 strain of the present invention. […]
(§4) At the end of the experiment, the mice were anesthetized with CO2, and blood was collected by cardiac puncture. […] The concentrations of IL-4, IL-12, IFN-γ and IL-6 cytokines were measured using an ELISA kit (Invitrogen, CA, USA), and the results of the measurement are shown in FIGS. 16 and 17.

Test [4] concerns NC/Nga mice. Kind of test: Scratching frequency. Conditions: scratching for 10 minutes, day before end, compared to atopic dermatitis-induced group. In kind it is in vivo. The procedure: as §1, §2
(§5) The backs of 6-week-old NC/Nga mice were shaved clean, and then left to stand for 24 hours so that fine wounds of the skin were healed. 1% 2,4-dinitrochlorobenzene (DNCB) solution (Sigma-Aldrich Korea) was applied to the back of each mouse twice a week for 3 weeks to induce an immune response, and then 0.5% DNCB solution was applied twice a week to induce contact dermatitis. […]
The day before the end of the experiment, the frequency of scratching the affected area due to itching was measured. For measurement of the frequency of scratching, each mouse was acclimated for 10 minutes, and then the frequency of scratching for 10 minutes was measured using a counter.

In test [5] the test system is NC/Nga mice. Kind of test: Ear edema caused by atopic dermatitis (thickness gauge). Conditions: at 6 weeks; normal group 0.55 mm, DNCB group 1.50 mm. In kind it is in vivo. The procedure:
as §1, §2, §5
After completion of the experiment, the mice were sacrificed by anesthetizing with CO2, and then the degree of edema of both ears was measured by the velocity transformation technique using a thickness gauge (Digimatic thickness gauge, 547-301, Mitutoyo, Japan).

The test system of test [6] is NC/Nga mice. Kind of test: Spleen weight. In kind it is in vivo. The following applies: after 6 weeks oral treatment, compared to atopic dermatitis-induced group (DNCB). The procedure:
as §1, §2, §3
Thus, the weight of the spleen was measured to observe the effect of the composition for preventing atopic dermatitis on the immune organs of NC/Nga mice with atopic dermatitis induced by DNCB. […] The collected spleen tissue was washed with physiological saline and then dried, and the weights thereof were measured using a microbalance and the sizes thereof were visually observed.

Another test deals with IgE. Kind of test: Serum IgE concentration (ELISA). In kind it is in vivo, mice. Conditions: end of experiment, compared to DNCB group (1545.08 ng/ml). The procedure: as §1, §2, §5
At the end of the experiment, each of the mice was anesthetized with CO2 and blood was collected by cardiac puncture. The collected blood was centrifuged at 10,000 rpm for 5 minutes to separate the serum, and the serum IgE concentration was measured. […]
On the technique in general: In an ELISA, binding on a coated surface is turned into a signal by an enzyme label.

The next test relates to Th2/Th1 cytokines. Kind of test: Ratio of Th2/Th1 cytokines in serum. In kind it is in vivo, mice. The procedure: as §1
To observe atopic dermatitis lesions, 6-week-old NC/Nga mice (weighed about 21 to 25 g, SLC, Inc., Japan) were purchased from Daehan Biolink Co., Ltd. (Chungbuk, Korea). Animal tests were carried out in accordance with the Animal use and Care Protocol of the Institutional Animal Care and Use Committee (IACUC). The animals were acclimated for one week, and then raised for 9 weeks at a constant temperature of 22° C. and a relative humidity of 50 to 60% with a 12-hr light/12-hr dark cycle. […]
as §4
From an immunological point of view, allergenic atopic dermatitis is a disease caused by an excessive imbalance between Th1 and Th2 immune responses. Thus, the cytokine concentrations measured as described above were expressed as the ratio of Th2/Th1 cytokines, and the results are shown in FIGS. 18 and 19.

As for `O=C(N[C@H](CO)[C@H](O)c1ccc([N+](=O)[O-])cc1)C(Cl)Cl` [CHL, chloramphenicol], the MIC breakpoint class entry in test [1] was “(R)”. In addition, in [2], the “resistance or sensitivity of the EB-FPDK11 strain to the antibiotic” value (“resistance or sensitivity” for short) was “sensitivity” and the MIC breakpoint class result was “(S)”.

For `CCC[C@@H]1C[C@@H](C(=O)N[C@@H]([C@H]2O[C@H](SC)[C@H](O)[C@@H](O)[C@H]2O)[C@H](C)Cl)N(C)C1` [CLI, clindamycin], the MIC breakpoint class entry in [1] and in test [2] was “(S)” each time.

`CO/N=C(\C(=O)N[C@@H]1C(=O)N2C(C(=O)O)=CCS[C@H]12)c1csc(N)n1` [CTZ, ceftizoxime]: the MIC breakpoint class result in test [1] is “(I)”. In addition, in test [2], the “resistance or sensitivity” value was “resistance” and the MIC breakpoint class result was “(R)”.

Compound `C[C@@H](O)[C@H]1C(=O)N2C(C(=O)O)=C(S[C@@H]3CN[C@H](C(=O)N(C)C)C3)[C@H](C)[C@H]12` [MEM, meropenem] showed an MIC in test [3] of 0.5 µg/mL (≈ 1.3 µM). In addition, the MIC breakpoint class entry in [1] is listed as “(R)”. Also, in test [2], the “resistance or sensitivity” value is on record as “resistance” and the MIC breakpoint class entry is listed as “(R)”.

As to `Cc1ncc([N+](=O)[O-])n1CCO` [MTZ, metronidazole], the MIC breakpoint class result in [1] is “(S)”. Moreover, in test [2], the “resistance or sensitivity” value was “sensitivity” and the MIC breakpoint class result is listed as “(S)”.

Regarding `COc1c(N2C[C@@H]3CCCN[C@@H]3C2)c(F)cc2c(=O)c(C(=O)O)cn(C3CC3)c12` [MXF, moxifloxacin], the MIC breakpoint class result in [1] and in test [2] was “(R)” in each case.

As to `C[C@@H]1C[C@H]2[C@@H]3CCC4=CC(=O)C=C[C@]4(C)[C@@]3(F)[C@@H](O)C[C@]2(C)[C@@]1(O)C(=O)CO` [dexamethasone], the “decrease in IL-6 concentration” value in the test with IL-6 was determined as 35.5%. The “decrease in frequency of scratching” value in the test with NC/Nga mice [4] is listed as “about 59.4%”. Further, the ear edema with NC/Nga mice [5] stood at 1.00 mm. For the same compound, in the test with NC/Nga mice [6], the “decrease in spleen weight” value is 23.26%. Further, in the test with IgE, the “decrease in serum IgE concentration” value is 40.70%. Also, in the test with Th2/Th1 cytokines (compared to atopic dermatitis-induced group), the “decrease in IL-4/IL-12 ratio” value is recorded as 23.7%. Further, the “decrease in ratio of IL-6/IL-12” value in the test with Th2/Th1 cytokines (compared to atopic dermatitis-induced group (DNCB)) turned out to be 35.8%.

For Piperacillin-tazobactam [PTZ], the MIC in test [1] (test strain A2-165, broth microdilution) is ≤256/4; in test [2] (test strain EB-FPDK11, broth microdilution) it was ≤256/4. Moreover, the MIC breakpoint class result in [1] and in test [2] was “(R)” each time. In addition, the “resistance or sensitivity” value in test [2] is recorded as “resistance”.

As a reminder, the MIC is the lowest concentration that inhibits growth of the organism.
